The source of these data is ChEMBL document CHEMBL1146701, “Discovery of a novel bicycloproline P2 bearing peptidyl alpha-ketoamide LY514962 as HCV protease inhibitor” (Bioorg Med Chem Lett, 2004).

The test system of data set [1] is Hepatitis C virus NS3 protease. As to the kind of experiment: Inhibitory activity against Protease using replicon assay […] at 25 uM concentration. Particulars: Rattus norvegicus. In general terms: In antiviral work, replicon cells carry a viral genome segment that copies itself.
Data set [2] is filed under the species Rattus norvegicus. Put plainly: Inhibitory activity against Protease using replicon assay […] at 25 uM concentration.
Data set [3] has as its system Hepatitis C virus NS3 protease. As to the kind of experiment: Cytotoxic activity against Protease in […] Huh-7 cells at 100 uM.
Data set [4] concerns Huh-7 (Homo sapiens). Put plainly: Cytotoxic activity against human hepatoma Huh-7 cells at 100 uM concentration.
The test system of data set [5] is Rattus norvegicus. As to the kind of experiment: In vivo concentration in rat liver exposure 0-8 hour after oral administration 50 mg/kg. Format: ADME, organism-based. The arrangement: dose 50 mg/kg, route oral.
Data set [6] is described as follows: In vivo maximum concentration in rat plasma exposure after oral administration 50 mg/kg. Format: ADME, organism-based. The arrangement: dose 50 mg/kg, route oral.
Data set [7] concerns Rattus norvegicus. Put plainly: In vivo area under curve in rat plasma exposure after oral administration 50 mg/kg. It is filed as ADME, organism-based. Further details: dose 50 mg/kg, route oral.
A short description of data set [8]: In vivo concentration in rat liver exposure 8 hour after oral administration 50 mg/kg. To be noted: read-out: C. Further details: dose 50 mg/kg, route oral. It is filed as ADME, organism-based.
Data set [9] can be described thus: In vivo concentration in rat plasma exposure at 8 hour after oral administration 50 mg/kg. Format: ADME, organism-based. The arrangement: dose 50 mg/kg, route oral. To be noted: read-out: C.
Data set [10] deals with Kallikrein-1 (Homo sapiens) (UniProt P06870). As to the kind of experiment: Inhibitory activity against kallikrein. To be noted: concentration not given here.
Sequence of Kallikrein-1 (Homo sapiens) (P06870 25-262 limits assumed): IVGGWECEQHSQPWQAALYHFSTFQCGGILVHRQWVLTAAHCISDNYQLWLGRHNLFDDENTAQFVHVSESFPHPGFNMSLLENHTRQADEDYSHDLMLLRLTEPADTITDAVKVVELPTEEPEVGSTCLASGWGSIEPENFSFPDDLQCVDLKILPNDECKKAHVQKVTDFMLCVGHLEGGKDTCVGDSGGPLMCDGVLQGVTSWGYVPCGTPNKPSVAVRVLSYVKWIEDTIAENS
For data set [11], the target named is Prothrombin (Homo sapiens) (UniProt P00734). Put plainly: Inhibitory activity against thrombin. Particulars: concentration not given here.
In data set [12] the target is Serine protease 1 (Homo sapiens) (UniProt P07477). As to the kind of experiment: Inhibitory activity against trypsin. Particulars: concentration not given here.
Sequence of Serine protease 1 (Homo sapiens) (P07477 whole entry): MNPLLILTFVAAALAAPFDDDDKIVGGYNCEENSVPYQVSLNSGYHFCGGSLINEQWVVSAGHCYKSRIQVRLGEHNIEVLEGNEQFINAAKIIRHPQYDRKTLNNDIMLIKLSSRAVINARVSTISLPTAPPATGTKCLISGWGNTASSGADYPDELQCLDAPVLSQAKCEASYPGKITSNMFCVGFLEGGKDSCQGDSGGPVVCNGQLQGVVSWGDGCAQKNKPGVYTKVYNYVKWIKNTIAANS
Data set [13] concerns the target Plasminogen (Rattus norvegicus) (UniProt Q01177). Put plainly: Inhibitory activity against plasmin. To be noted: concentration not given here.

Sequence of Plasminogen (Rattus norvegicus) (Q01177 97-581 limits assumed): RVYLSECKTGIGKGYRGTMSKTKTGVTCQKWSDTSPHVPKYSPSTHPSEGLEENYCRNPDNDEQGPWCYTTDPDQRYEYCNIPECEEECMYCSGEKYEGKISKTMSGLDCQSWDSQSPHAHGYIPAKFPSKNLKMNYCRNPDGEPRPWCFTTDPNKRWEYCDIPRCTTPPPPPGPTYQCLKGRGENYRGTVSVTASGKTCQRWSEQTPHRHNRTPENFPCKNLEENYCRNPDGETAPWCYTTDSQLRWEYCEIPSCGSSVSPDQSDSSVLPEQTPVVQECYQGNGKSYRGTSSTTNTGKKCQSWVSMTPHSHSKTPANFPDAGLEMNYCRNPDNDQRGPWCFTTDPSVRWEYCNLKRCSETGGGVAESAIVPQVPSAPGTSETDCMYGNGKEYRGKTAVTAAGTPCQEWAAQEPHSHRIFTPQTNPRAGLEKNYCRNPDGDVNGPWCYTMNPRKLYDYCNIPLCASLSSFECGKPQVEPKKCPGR
Sequence of Plasminogen (Rattus norvegicus) (Q01177 582-812 limits assumed): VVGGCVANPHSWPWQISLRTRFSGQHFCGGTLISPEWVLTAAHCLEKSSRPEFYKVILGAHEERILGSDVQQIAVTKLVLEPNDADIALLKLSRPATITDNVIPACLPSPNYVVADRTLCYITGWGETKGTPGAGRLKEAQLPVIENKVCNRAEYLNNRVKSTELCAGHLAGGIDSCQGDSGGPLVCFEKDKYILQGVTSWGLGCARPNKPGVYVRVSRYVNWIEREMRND

As a reminder, the inhibition is the drop in the measured response relative to a control, in per cent. As for `CCCC(NC(=O)[C@@H]1[C@H]2CC[C@@H](OCOC)C2CN1C(=O)[C@@H](NC(=O)[C@@H](NC(=O)c1cnccn1)C(C)C)C(C)C)C(=O)C(=O)N[C@@H](C)c1ccccc1` (stereo not given in full), the inhibition in data set [1] stood at 98%.
`CCCC(NC(=O)[C@@H]1[C@H]2CCC[C@H]2CN1C(=O)[C@@H](NC(=O)[C@@H](NC(=O)c1cnccn1)C(C)C)C(C)C)C(=O)C(=O)N[C@@H](C)c1ccccc1` (stereo not given in full): the inhibition in data set [2] was found to be 97%.
As to `CCCC(NC(=O)[C@@H]1[C@H]2CC[C@H](F)[C@H]2CN1C(=O)[C@@H](NC(=O)[C@@H](NC(=O)c1cnccn1)C(C)C)C(C)C)C(=O)C(=O)N[C@@H](Cc1ccccc1)C(=O)O` (stereo not given in full), the inhibition in data set [1] is -8%.
With `CCCC(NC(=O)[C@@H]1[C@H]2CCC(F)(F)[C@H]2CN1C(=O)[C@@H](NC(=O)[C@@H](NC(=O)c1cnccn1)C(C)C)C(C)C)C(=O)C(=O)NC1CC1` (stereo not given in full), the inhibition in data set [1] came to 64%.
As to `CCCC(NC(=O)[C@@H]1[C@H]2CC[C@H](F)[C@H]2CN1C(=O)[C@@H](NC(=O)[C@@H](NC(=O)c1cnccn1)C(C)C)C(C)C)C(=O)C(=O)N[C@@H](C)c1ccccc1` (stereo not given in full), the inhibition in data set [3] came to 33%; in [1] it was 97%.
Turning to `CCCC(NC(=O)[C@@H]1[C@H]2CC=C[C@H]2CN1C(=O)[C@@H](NC(=O)[C@@H](NC(=O)c1cnccn1)C(C)C)C(C)C)C(=O)C(=O)N[C@@H](C)CC` (stereo not given in full), the inhibition in data set [1] is 91%.
For the molecule `CCCC(NC(=O)[C@@H]1[C@H]2CC=C[C@H]2CN1C(=O)[C@@H](NC(=O)[C@@H](NC(=O)c1cnccn1)C(C)C)C(C)C)C(=O)C(=O)N[C@@H](C)c1ccccc1` (stereo not given in full), the figures for the inhibition in [4] and in data set [1] were 33% and 97%, respectively.
With `CCCC(NC(=O)[C@@H]1[C@H]2CC[C@H](F)[C@H]2CN1C(=O)[C@@H](NC(=O)[C@@H](NC(=O)c1cnccn1)C(C)C)C(C)C)C(=O)C(=O)NC1CC1` (stereo not given in full), the inhibition in [1] is 84%.
As a reminder, the Cmax is the highest concentration seen after dosing. Molecule `CCCC(NC(=O)[C@@H]1[C@H]2CCC[C@H]2CN1C(=O)[C@@H](NC(=O)[C@@H](NC(=O)c1cnccn1)C(C)C)C(C)C)C(=O)C(=O)NC1CC1` (stereo not given in full) gave a Caverage in [5] of 6290 nM. In data set [6], this molecule gave a Cmax of 2250 ng/mL. Besides, the AUC in data set [7] worked out at 2.86 µg/h/mL. Also, the concentration at 8 h in data set [8] worked out at 500 nM; in data set [9], 10 ng/mL. In addition, the inhibition in data set [2] was found to be 93%; in [10] it was 0%; in [11], 12%; in [12], 0%; in data set [13], 5%.
